In ChEMBL document CHEMBL4814047, “Design, synthesis and biological activity of N-(amino)piperazine-containing benzothiazinones against Mycobacterium tuberculosis” (Eur J Med Chem, 2021):
Converted amounts (≈) assume the structure as drawn.

Legend:
[1] = test system: Mycobacterium tuberculosis; test: Antimycobacterial activity against Mycobacterium tuberculosis H37Rv ATCC 27294 incubated for 7 days by microplate alamar blue assay; format: functional; settings: H37Rv ATCC 27294, 168 h, time 7 day
hERG (KCNH2) = hERG (KCNH2) (Homo sapiens, UniProt Q12809); test: Inhibition of human ERG expressed in HEK293 cells at 10 uM by whole cell patch clamp method relative to control; format: cell-based; settings: HEK293 cells expressing hERG
[2] = Cytotoxicity against African green monkey Vero cells incubated for 72 hrs by MTT assay; format: cell-based; settings: chlorocebus sabaeus
[3] = Half life in ICR mouse at 25 mg/kg, po measured upto 24 hrs by HPLC analysis; format: ADME, organism-based; settings: in vivo
[4] = MRT in ICR mouse at 25 mg/kg, po measured upto 24 hrs by HPLC analysis; format: ADME, organism-based; settings: in vivo
[5] = Tmax in ICR mouse at 25 mg/kg, po measured upto 24 hrs by HPLC analysis; format: ADME, organism-based; settings: in vivo
[6] = AUC (0 to infinity) in ICR mouse at 25 mg/kg, po measured upto 24 hrs by HPLC analysis; format: ADME, organism-based; parameters: route oral, dose 25 mg/kg, time <=24; settings: in vivo
[7] = Cmax in ICR mouse at 25 mg/kg, po measured upto 24 hrs by HPLC analysis; format: ADME, organism-based; parameters: route oral, dose 25 mg/kg, time <=24; settings: in vivo

Chain of hERG (KCNH2) (Q12809 whole entry): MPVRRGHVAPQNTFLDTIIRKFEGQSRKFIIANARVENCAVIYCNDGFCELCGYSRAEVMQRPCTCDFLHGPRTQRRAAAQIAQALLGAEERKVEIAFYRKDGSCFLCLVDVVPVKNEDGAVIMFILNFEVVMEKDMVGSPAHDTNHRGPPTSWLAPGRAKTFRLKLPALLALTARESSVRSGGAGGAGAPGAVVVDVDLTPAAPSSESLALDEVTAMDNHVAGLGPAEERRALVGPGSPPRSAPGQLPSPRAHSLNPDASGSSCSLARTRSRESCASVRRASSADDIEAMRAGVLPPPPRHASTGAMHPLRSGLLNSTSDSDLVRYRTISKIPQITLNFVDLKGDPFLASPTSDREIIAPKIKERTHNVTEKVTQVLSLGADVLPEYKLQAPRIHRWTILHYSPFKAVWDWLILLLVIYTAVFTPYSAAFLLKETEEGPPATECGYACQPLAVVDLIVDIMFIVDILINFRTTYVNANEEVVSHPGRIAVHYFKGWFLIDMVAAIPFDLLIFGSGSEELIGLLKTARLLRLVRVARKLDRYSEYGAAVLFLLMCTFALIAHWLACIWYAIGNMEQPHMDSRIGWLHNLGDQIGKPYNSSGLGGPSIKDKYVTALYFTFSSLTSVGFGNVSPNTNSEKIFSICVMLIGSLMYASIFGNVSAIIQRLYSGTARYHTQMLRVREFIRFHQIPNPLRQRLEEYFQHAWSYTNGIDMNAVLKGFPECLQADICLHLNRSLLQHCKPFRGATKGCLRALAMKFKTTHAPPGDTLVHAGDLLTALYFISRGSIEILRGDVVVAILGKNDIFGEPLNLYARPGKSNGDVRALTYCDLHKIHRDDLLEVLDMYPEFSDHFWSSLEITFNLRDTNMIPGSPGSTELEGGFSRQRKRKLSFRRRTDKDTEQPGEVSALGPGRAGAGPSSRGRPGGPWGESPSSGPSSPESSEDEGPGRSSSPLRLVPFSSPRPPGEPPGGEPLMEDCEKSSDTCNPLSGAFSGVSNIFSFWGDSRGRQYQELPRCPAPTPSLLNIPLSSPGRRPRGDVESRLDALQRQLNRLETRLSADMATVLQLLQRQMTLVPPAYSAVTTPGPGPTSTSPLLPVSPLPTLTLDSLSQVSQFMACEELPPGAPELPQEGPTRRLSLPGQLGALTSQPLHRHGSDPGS

SMILES | MIC [1] [µg/mL] | CC50 at 72 h [2] [µg/mL] | also measured
O=c1nc(N2CCN(/N=C/c3ccc(OC(F)(F)F)cc3)CC2)sc2c([N+](=O)[O-])cc(C(F)(F)F)cc12 | < 0.016 | > 64 | inhibition at 10 µM (hERG (KCNH2)): 88.2%
O=c1nc(NN2CCN(Cc3ccncc3)CC2)sc2c([N+](=O)[O-])cc(C(F)(F)F)cc12 | > 1 |  | 
CC(NN1CCN(c2nc(=O)c3cc(C(F)(F)F)cc([N+](=O)[O-])c3s2)CC1)c1ccc(OC(F)(F)F)cc1 (stereo unspecified) | < 0.016 | > 64 | 
O=c1nc(N2CCN(Nc3ccc(C(F)(F)F)cc3)CC2)sc2c([N+](=O)[O-])cc(C(F)(F)F)cc12 | < 0.016 | > 64 | 
O=c1nc(N2CCN(NCc3ccc(Br)cc3)CC2)sc2c([N+](=O)[O-])cc(C(F)(F)F)cc12 | < 0.016 | > 64 | 
O=c1nc(N2CCN(NCc3ccc(F)cc3)CC2)sc2c([N+](=O)[O-])cc(C(F)(F)F)cc12 | < 0.016 | > 64 | 
COc1ccc(CNN2CCN(c3nc(=O)c4cc(C(F)(F)F)cc([N+](=O)[O-])c4s3)CC2)cc1 | < 0.016 | > 64 | 
NN1CCN(c2nc(=O)c3cc(C(F)(F)F)cc([N+](=O)[O-])c3s2)CC1 | 0.941 (≈ 2.51 µM) |  | 
CC(C)CN(CC(C)C)N1CCN(c2nc(=O)c3cc(C(F)(F)F)cc([N+](=O)[O-])c3s2)CC1 | < 0.016 | > 64 | 
O=c1nc(N2CCN(NCc3ccc(OC(F)(F)F)cc3)CC2)sc2c([N+](=O)[O-])cc(C(F)(F)F)cc12 | < 0.016 | > 64 | inhibition at 10 µM (hERG (KCNH2)): 71.1%
O=C(C1CCCCC1)N1CCN(Nc2nc(=O)c3cc(C(F)(F)F)cc([N+](=O)[O-])c3s2)CC1 | > 1 |  | 
O=C(NN1CCN(c2nc(=O)c3cc(C(F)(F)F)cc([N+](=O)[O-])c3s2)CC1)c1ccc(C(F)(F)F)cc1 | 0.589 (≈ 1.08 µM) |  | 
O=c1nc(N2CCN(Nc3ccc(OC(F)(F)F)cc3)CC2)sc2c([N+](=O)[O-])cc(C(F)(F)F)cc12 | < 0.016 | > 64 | inhibition at 10 µM (hERG (KCNH2)): 55.5%
O=c1nc(N2CCN(NCc3ccc(Cl)cc3)CC2)sc2c([N+](=O)[O-])cc(C(F)(F)F)cc12 | < 0.016 | > 64 | 
Cc1cccc(F)c1CNN1CCN(c2nc(=O)c3cc(C(F)(F)F)cc([N+](=O)[O-])c3s2)CC1 | < 0.016 | > 64 | 
CN(c1ccc(OC(F)(F)F)cc1)N1CCN(c2nc(=O)c3cc(C(F)(F)F)cc([N+](=O)[O-])c3s2)CC1 | < 0.016 | > 64 | half-life [3]: 3.6 h; MRT [4]: 4.34 h; Tmax [5]: 0.667 h; AUC(0-inf) [6]: 4700 ng·h/mL; Cmax [7]: 1100 ng/mL; inhibition at 10 µM (hERG (KCNH2)): 45.6%
O=c1nc(N2CCN(NC3CCCCC3)CC2)sc2c([N+](=O)[O-])cc(C(F)(F)F)cc12 | < 0.016 | > 64 | half-life [3]: 1.28 h; MRT [4]: 1.47 h; Tmax [5]: 0.583 h; AUC(0-inf) [6]: 4430 ng·h/mL; Cmax [7]: 1960 ng/mL; inhibition at 10 µM (hERG (KCNH2)): 20.4%
CON=C1CCC(N(C)N2CCN(c3nc(=O)c4cc(C(F)(F)F)cc([N+](=O)[O-])c4s3)CC2)CC1 (stereo unspecified) | < 0.016 | > 64 | half-life [3]: 4.09 h; MRT [4]: 3.89 h; Tmax [5]: 0.5 h; AUC(0-inf) [6]: 15800 ng·h/mL; Cmax [7]: 5140 ng/mL; inhibition at 10 µM (hERG (KCNH2)): 22.7%
O=c1nc(N2CCN(NCc3cccnc3)CC2)sc2c([N+](=O)[O-])cc(C(F)(F)F)cc12 | 0.228 (≈ 0.489 µM) |  | 
O=c1nc(NN2CCN(Cc3ccc(OC(F)(F)F)cc3)CC2)sc2c([N+](=O)[O-])cc(C(F)(F)F)cc12 | > 1 |  | 
Cc1ccc(CNN2CCN(c3nc(=O)c4cc(C(F)(F)F)cc([N+](=O)[O-])c4s3)CC2)cc1 | < 0.016 | > 64 | 
CN(CC1CCCCC1)N1CCN(c2nc(=O)c3cc(C(F)(F)F)cc([N+](=O)[O-])c3s2)CC1 | < 0.016 | > 64 | inhibition at 10 µM (hERG (KCNH2)): 54.6%
O=c1nc(N2CCN(NCC3CCCC3)CC2)sc2c([N+](=O)[O-])cc(C(F)(F)F)cc12 | < 0.016 | > 64 | 

SMILES | MIC [1] [µg/mL] | CC50 at 72 h [2] [µg/mL] | also measured
O=C(NN1CCN(c2nc(=O)c3cc(C(F)(F)F)cc([N+](=O)[O-])c3s2)CC1)C1CCCCC1 | 0.473 (≈ 0.974 µM) |  | 
O=c1nc(NN2CCN(CC3CCCCC3)CC2)sc2c([N+](=O)[O-])cc(C(F)(F)F)cc12 | > 1 |  | 
CON=C1CCC(CN(C)N2CCN(c3nc(=O)c4cc(C(F)(F)F)cc([N+](=O)[O-])c4s3)CC2)CC1 (stereo unspecified) | 0.025 (≈ 0.0473 µM) |  | 
O=c1nc(N2CCN(NCc3cccc(C(F)(F)F)c3)CC2)sc2c([N+](=O)[O-])cc(C(F)(F)F)cc12 | < 0.016 | > 64 | 
CC(c1ccc(OC(F)(F)F)cc1)N(C)N1CCN(c2nc(=O)c3cc(C(F)(F)F)cc([N+](=O)[O-])c3s2)CC1 (stereo unspecified) | < 0.016 | > 64 | half-life [3]: 3.89 h; MRT [4]: 2.66 h; Tmax [5]: 0.833 h; AUC(0-inf) [6]: 2870 ng·h/mL; Cmax [7]: 944 ng/mL; inhibition at 10 µM (hERG (KCNH2)): 46.9%
O=c1nc(N2CCN(NCC3CCCCC3)CC2)sc2c([N+](=O)[O-])cc(C(F)(F)F)cc12 | < 0.016 | 29.3 (≈ 62.1 µM) | inhibition at 10 µM (hERG (KCNH2)): 64.4%
C/C(=N\N1CCN(c2nc(=O)c3cc(C(F)(F)F)cc([N+](=O)[O-])c3s2)CC1)c1ccc(OC(F)(F)F)cc1 | < 0.016 | > 64 | 
O=c1nc(N2CCN(N(CC3CCCC3)CC3CCCC3)CC2)sc2c([N+](=O)[O-])cc(C(F)(F)F)cc12 | 0.0803 (≈ 0.149 µM) |  | 
CON=C1CCC(NN2CCN(c3nc(=O)c4cc(C(F)(F)F)cc([N+](=O)[O-])c4s3)CC2)CC1 (stereo unspecified) | 0.028 (≈ 0.0559 µM) |  | 
CC(C)CNN1CCN(c2nc(=O)c3cc(C(F)(F)F)cc([N+](=O)[O-])c3s2)CC1 | 0.0281 (≈ 0.0651 µM) |  | 
O=C(NN1CCN(c2nc(=O)c3cc(C(F)(F)F)cc([N+](=O)[O-])c3s2)CC1)c1ccc(OC(F)(F)F)cc1 | 0.965 (≈ 1.71 µM) |  | 
O=c1nc(N2CCN(NCc3ccc(C(F)(F)F)cc3)CC2)sc2c([N+](=O)[O-])cc(C(F)(F)F)cc12 | < 0.016 | > 64 | 
CCC(CC)CN(CC(CC)CC)N1CCN(c2nc(=O)c3cc(C(F)(F)F)cc([N+](=O)[O-])c3s2)CC1 | 0.49 (≈ 0.902 µM) |  | 
O=c1nc(N2CCN(NCc3ccc(O)cc3)CC2)sc2c([N+](=O)[O-])cc(C(F)(F)F)cc12 | 0.9 (≈ 1.87 µM) |  | 
O=c1nc(N2CCN(NS(=O)(=O)C3CCCCC3)CC2)sc2c([N+](=O)[O-])cc(C(F)(F)F)cc12 | > 1 |  | 
O=c1nc(N2CCN(NCc3cc(F)cc(F)c3)CC2)sc2c([N+](=O)[O-])cc(C(F)(F)F)cc12 | < 0.016 | > 64 | 
CON=C1CCC(CNN2CCN(c3nc(=O)c4cc(C(F)(F)F)cc([N+](=O)[O-])c4s3)CC2)CC1 (stereo unspecified) | 0.057 (≈ 0.111 µM) |  | 
O=c1nc(N2CCN(NCCC3CCCCC3)CC2)sc2c([N+](=O)[O-])cc(C(F)(F)F)cc12 | < 0.016 | > 64 | inhibition at 10 µM (hERG (KCNH2)): 76.4%
CC(C)(C)c1ccc(CNN2CCN(c3nc(=O)c4cc(C(F)(F)F)cc([N+](=O)[O-])c4s3)CC2)cc1 | < 0.016 | > 64 | 
NNC(=O)c1ccncc1 [ISONIAZID] | 0.0366 (≈ 0.267 µM) |  | 
O=c1nc(N2CCN(CC3CCCCC3)CC2)sc2c([N+](=O)[O-])cc(C(F)(F)F)cc12 [MACOZINONE] | < 0.016 | > 64 | 
CO[C@H]1/C=C/O[C@@]2(C)Oc3c(C)c(O)c4c(O)c(c(/C=N/N5CCN(C)CC5)c(O)c4c3C2=O)NC(=O)/C(C)=C\C=C\[C@H](C)[C@H](O)[C@@H](C)[C@@H](O)[C@@H](C)[C@H](OC(C)=O)[C@@H]1C [RIFAMPIN] | 0.0382 (≈ 0.0464 µM) |  | 
